In US9696297B2, “Method for preparing an X chromosome inactivated female human neural cell” (SALK INSTITUTE FOR BIOLOGICAL STUDIES, priority 2009, dated 2017):
Entries after “also recorded” stand apart in the source; their conditions may differ.

Key:
[1] = test system: iPSC-derived neurons; test: Whole-cell patch clamp recording of spontaneous postsynaptic currents; format: cell-based, human; settings: for EPSCs: 10-20 μM
Procedure: Whole-cell patch clamp recordings were performed from cells co-cultured with astrocytes after 6 weeks of differentiation. The bath was constantly perfused with fresh HEPES-buffered saline as described herein. The recording micropipettes (tip resistance 3-6 MΩ) were filled with internal solution described in the Supplemental materials. Recordings were made using Axopatch 200B amplifier (Axon Instruments). Signals were filtered at 2 kHz and sampled at 5 kHz. The whole-cell capacitance was fully compensated. The series resistance was uncompensated but monitored during the experiment by the amplitude of the capacitive current in response to a 10-mV pulse. All recordings were performed at room temperature and chemicals were purchased from Sigma. Frequency and amplitude of spontaneous postsynaptic currents were measured with the Mini Analysis Program software (Synaptosoft, Leonia, N.J.). Statistical comparisons of WT and RTT groups were made using the non-parametric Kolmogorov-Smirnov two-tailed test, with a significance criterion of p=0.05. EPSCs were blocked by CNQX or DNQX (10-20 μM) and IPSPs were inhibited by bicuculine (20 μM).

[2] = test system: iPSC-derived neuronal networks; test: Calcium imaging of spontaneous calcium transients in iPSC-derived neuronal networks; settings: drug treatment, concentration not printed (FIG. 11A, 11C, 11D)
Procedure: Neuronal networks derived from human iPSCs were previously infected with the lentiviral vector carrying the Syn::DsRed reporter construct. Cell cultures were washed twice with sterile Krebs HepesHEPES Buffer (KHB) (10 mM HEPES, 4.2 mM NaHCO3, 10 mM dextrose, 1.18 mM MgSO4.2H2O, 1.18 mM KH2PO4, 4.69 mM KCl, 118 mM NaCl, 1.29 mM CaCl2; pH 7.3) and incubated with 0.2-0.5 μM Fluo-4AM (Molecular Probes/Invitrogen, Carlsbad, Calif.) in KHB for 40 minutes at room temperature. Excess dye was removed by washing twice with KHB and an additional 20-minute minutes incubation was done to equilibrate intracellular dye concentration and allow de-esterification. Time-lapse image sequences (200×100× magnification) of 5000 frames were acquired at 28 Hz with a region of 336×256 pixels, using a Hamamatsu ORCA-ER digital camera (Hamamatsu Photonics K.K., Hamamatsu City, Japan) with a 488 mm (FITC) filter on an Olympus IX81 inverted fluorescence confocal microscope (Olympus Optical, Tokyo, Japan). […]
ImageJ, an NIH funded open source, JAVA-based morphometric application, was used to allow manual selection of individual cells on the xy-plane of each movie using circles of 4 pixels (˜5 μm) in diameter. Each cell was considered as an individual region of interest (ROIs) and the average fluorescence intensity was calculated for each ROI in each frame using Time Series Analyzer ImageJ plugin. […]

[3] = test system: RTT-derived neurons; test: VGLUT1 puncta (glutamatergic synapse) quantification in RTT-iPSC-derived neurons, rescue experiments; format: cell-based, human; settings: for VGLUT1 puncta number / glutamatergic synapse number: RTT-derived neurons carrying different MeCP2 mutations, IGF1 10 μg/mL for 1 week
[4] = test system: WT neurons; test: VGLUT1 puncta (glutamatergic synapse) quantification in WT-iPSC-derived control neurons; format: cell-based, human; settings: gentamicin 400 ug/ml, 1 week
Text: Female RTT and control fibroblasts were generated from explants of dermal biopsies following informed consent under protocols approved by the University of California San Diego. The Syn::EGFP or DsRed reporter vector was obtained by cloning the Synapsin-1 promoter in a lentivirus backbone. The shRNA against a target sequence on the human MeCP2 gene was cloned in the LentiLox3.7 lentivirus vector. Retrovirus vectors containing the Oct4, c-Myc, Klf4 and Sox2 human cDNAs from Yamanaka's group (Takahashi et al., 2007, Id.) were obtained from Addgene. Two days after infection, fibroblasts were plated on mitotically inactivated mouse embryonic fibroblasts (Chemicon) with hESC medium. After 2 weeks, iPSC colonies were directly transferred to feeder-free conditions on matrigel-coated dishes (BD) using mTeSRTM1 (StemCell Technologies), and passed manually. […]
Cells were briefly fixed in 4% paraformaldehyde and then permeabilized with 0.5% Triton-X100 in PBS. […] Fluorescent signals were detected using a Zeiss inverted microscope and images were processed with Photoshop CS3 (Adobe Systems). […] For synapse quantification, images were taken by a z-step of 1 μm using Biorad radiance 2100 confocal microscope. Synapse quantification was done blinded to genotype. Only VGLUT1 puncta along Map2-positive processes were counted. […]

[5] = test system: MeCP2; test: MeCP2 protein level by Western blot in RTT neurons (Q244X); format: cell-based, human; settings: gentamicin

**Q.** How did the EPSCs [1] turn out when `N#Cc1cc2[nH]c(=O)c(=O)[nH]c2cc1[N+](=O)[O-]` [CNQX] was run?
**A.** The EPSCs was “blocked”.

**Q.** `O=[N+]([O-])c1cc2nc(O)c(O)nc2cc1[N+](=O)[O-]` [DNQX] was tested. Which EPSCs [1] did it give?
**A.** The EPSCs was “blocked”.

**Q.** `COc1ccc(-c2ccc(=N)n(CCCC(=O)O)n2)cc1` [Gabazine] was tested. Which intracellular calcium transients [2] did it give?
**A.** The intracellular calcium transients was “increased”.

**Q.** Which IPSPs ([1]; 20 μM) does the source give for `CN1CCc2cc3c(cc2[C@H]1[C@@H]1OC(=O)c2c1ccc1c2OCO1)OCO3` [bicuculine] here?
**A.** Its IPSPs is “inhibited”.

**Q.** With “IGF1: IGF1 (Peprotech), candidate for pharmacological treatment of RTT” as the compound, how does the “VGLUT1 puncta number / glutamatergic synapse number” value [3] read?
**A.** The value was “increased”.

**Q.** And the “VGLUT1 puncta number / glutamatergic synapse number” value ([3]; listed as IFG1)?
**A.** Its value is “above normal levels”.

**Q.** What does the source list for gentamicin?
**A.** rescue of RTT neurons (VGLUT1 puncta) ([3]; RTT neurons, higher gentamicin dose 400 ug/ml, 1 week): did not rescue; glutamatergic synapse numbers (VGLUT1 puncta) ([3]; RTT-Q244X clones 3 and 4 derived neurons, lower gentamicin dose (100 ug/ml), 1 week): increased; also recorded: rescuing; also recorded: rescue; number of VGLUT1 puncta in control neurons [4]: lowered; WT MeCP2 protein levels ([5]; RTT neurons (Q244X), after 2 weeks (FIG. 10E)): increased; MeCP2 protein levels ([5]; RTT-Q244X clones 3 and 4 derived neurons, after 1 week): increase
